Here are results for three compounds from patent US20240132519A1, “NRF2-ACTIVATING COMPOUND” (SENJU PHARMACEUTICAL CO., LTD., priority 2020, published 2024).

Marks after values point to notes of the source that are not given here.

One may read the IC50 as the concentration that gives 50% inhibition. Low readings indicate greater potency in that assay, high ones weaker potency in that assay. The EC50 is the concentration giving half of the maximal effect.

In data set [1] the target is binding between NRF2 and KEAP1 (Homo sapiens (Human), UniProt Q14145). As to the kind of experiment: Binding assay: inhibition of binding between NRF2 and KEAP1 by BRET (NanoLuc-NRF2 and KEAP1-HaloTag cell lysates). To be noted: Test Example 3; separated diastereomers; mean, N=2. On the procedure: The inhibitory activity of each compound on the binding between NRF2 and KEAP1 was measured by bioluminescence resonance energy transfer (BRET) assay. A plasmid having human NRF2 (Original Clone ID: ha01449s1) sequence fused with NanoLuc (19 kDa, Promega) at the N-terminal was transduced into HCE-T cells (immortalized human corneal epithelial cells) using FuGENE HD (Promega). 48 hours after transduction, the cell lysate was collected and used as an NRF2-expressing cell lysate. A plasmid having human KEAP1 (Original Clone ID: cs00328) sequence fused with HaloTag (33 kDa, Promega) at the C-terminal was transduced into HCE-T cells using FuGENE HD (Promega). After 24 hours, HaloTag Nano BRET 618 Ligand (Promega) was added to the medium. The cell lysate cultured for 24 hours after the addition was used as a KEAP1-expressing cell lysate.
binding between NRF2 and KEAP1, sequence (Q14145 whole entry, the tested form may be a part): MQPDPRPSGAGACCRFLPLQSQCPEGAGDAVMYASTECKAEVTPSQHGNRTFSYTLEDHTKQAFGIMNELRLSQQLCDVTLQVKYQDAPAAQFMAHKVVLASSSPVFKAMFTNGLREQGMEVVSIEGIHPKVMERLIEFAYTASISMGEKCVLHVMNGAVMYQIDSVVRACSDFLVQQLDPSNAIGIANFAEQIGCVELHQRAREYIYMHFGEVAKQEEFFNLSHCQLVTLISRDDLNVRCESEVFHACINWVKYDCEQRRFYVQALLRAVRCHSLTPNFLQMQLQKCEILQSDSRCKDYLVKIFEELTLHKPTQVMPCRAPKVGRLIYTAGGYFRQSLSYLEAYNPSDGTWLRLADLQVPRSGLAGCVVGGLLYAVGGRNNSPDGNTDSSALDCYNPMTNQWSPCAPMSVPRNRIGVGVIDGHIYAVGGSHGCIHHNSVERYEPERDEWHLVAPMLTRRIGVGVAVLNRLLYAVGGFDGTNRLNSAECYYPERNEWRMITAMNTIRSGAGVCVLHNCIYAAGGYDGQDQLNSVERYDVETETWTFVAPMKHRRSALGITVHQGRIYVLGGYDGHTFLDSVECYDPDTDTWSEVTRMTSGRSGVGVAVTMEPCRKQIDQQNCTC
The NRF2-expressing cell lysate and the KEAP1-expressing cell lysate were adjusted so that the luminescence and fluorescence intensities per well were constant. Tables 1 and 2 show the formulation of each reaction solution.
Each test substance at a concentration 100 times higher than the test concentration was dissolved in dimethylsulfoxide for adjustment. 49 μL of KEAP1 solution was added to a 96-well polystyrene microplate (FALCON) to which 1 μL of each test substance solution was added, followed by incubation for 15 minutes. Then, 50 μL of NRF2 solution was added to the above solution, followed by incubation for 1 hour. To measure the binding between NRF2 and KEAP1, NanoBRET Nano-Glo Substrate (Promega) diluted with Opti-Mem (Thermo Fisher Scientific) was added, followed by shaking for 30 seconds. Then, luminescence and fluorescence were measured using the GloMax Discover System (Promega). A 495-nm short pass filter and a 600-nm long pass filter were respectively used to measure donor and acceptor emission values. A value obtained by dividing the acceptor emission value by the donor emission value was regarded as BRET value. A BRET value when the compound was not added, and a BRET value when the KEAP1 solution was not added were respectively used as binding rates of 100% and 0%, and the binding rate when the compound was added was calculated. Further, using this binding rate, the 50% binding inhibitory activity concentration (IC50) was calculated from the following formula. The test was performed at N=2.
IC50(M)=10^(LOG(A/B)×(50−C)/(D−C)+LOG(B)) • A: higher concentration out of 2 close concentrations across the inhibition rate of 50% • B: lower concentration out of 2 close concentrations across the inhibition rate of 50% • C: inhibition rate at B • D: inhibition rate at A
(§1) Compounds A1/A2, compounds B1/B2, compounds C1/C2, and compounds D1/D2 were used as test substances. Binding assay and reporter assay were performed as in Test Example 1-1 and Test Example 1-2.

The next data set concerns NRF2. As to the kind of experiment: Reporter assay: NRF2 activating action in HCE-T/ARE-Luc cells (ARE luciferase reporter gene assay). Format: cell-based, human. To be noted: Test Example 3; separated diastereomers; mean, N=3. The procedure:
The NRF2 activating action of the compounds on cells was measured by a reporter gene assay. pGL4.37[luc2P/ARE/Hygro] (Promega) was introduced into HCE-T cells using FuGENE HD. Cells that acquired drug resistance as a result of transduction were screened by culture in the presence of 50 μg/mL hygromycin, and a clone strain, HCE-T/ARE-Luc cells, was established.
HCE-T/ARE-Luc cells were cultured using DMEM/F12 medium containing 10 ng/mL hEGF, 5 μg/mL insulin, 5% FBS, and 40 μg/mL gentamicin. As the assay medium, a medium with the same composition as that for the culture was prepared using phenol red-free DMEM/F12 medium.
HCE-T/ARE-Luc cells were seeded in a 96-well polystyrene microplate (FALCON) with 10000 cells per well. The cells were incubated in a CO2 incubator at 37° C. for 16 hours to allow for cell adhesion. The test substance was dissolved in dimethylsulfoxide to prepare a solution at a concentration 1000 times higher than the test concentration. The cells were treated with the test substance diluted 1000-fold with the assay medium and cultured for 24 hours. When measuring the activity of the reporter, the medium containing the test substance was removed, and then a new medium and a substrate of ONE-GloEX Luciferase Assay System (Promega) were added. The plate was shaken for 1 minute and then allowed to stand at ordinary temperature for 10 minutes, and luminescence was detected using the GloMax Discover System (Promega).
The test was performed at N=3, and the 50% activation concentration of each test substance was calculated by creating a calibration curve between two concentrations across the luminescence incensity of 50%.
as §1
A general note: Reporter assays use an easily measured gene product as a stand-in for the process of interest.

Another data set concerns HCE-T cells. As to the kind of experiment: Cell viability test in HCE-T cells (Cell Counting Kit-8, 24 hours). Particulars: mean, N=3. It counts as cell-based, human. The procedure:
To confirm cell viability, HCE-T cells were seeded at 10000 cells per well in a 96-well polystyrene microplate (IWAKI). The cells were cultured in a CO2 incubator at 37° C. for 16 hours to allow the cells to adhere. The culture of the HCE-T cells was performed using DMEM/F12 medium containing 10 ng/mL hEGF, 5 μg/mL insulin, 5% FBS, and 40 μg/mL gentamicin.
Each test substance was dissolved in dimethyl sulfoxide to prepare a stock solution with a concentration that is 1000 times the test concentration. DMEM/F12 medium containing 40 μg/mL gentamicin was used as assay medium. The medium containing serum and growth factors was removed and replaced with assay medium in which each test substance was appropriately serially diluted, and the cell viability was measured after 24 hours. Cell Counting Kit-8 (Dojindo Laboratories) was added to each well in an amount that is 1/10 the amount of the medium. Color reaction was performed for 1 hour in a CO2 incubator, and absorbance at 450 nm was measured with a microplate reader (Corona Electric Co., Ltd.). […] The test was performed at N=3.
A general note: Tetrazolium assays rely on reduction of a dye to a coloured formazan, in cell work by metabolically active cells.

In data set [1], `CC[C@@H]1CN(Cc2cc(C(c3ccc(C(C)=O)s3)[C@H](C)C(=O)O)ccc2C)S(=O)(=O)c2cnccc2O1` (stereo partly drawn) [Compound B2] returned an IC50 of 1.01 nM. Moreover, the concentration for a half-maximal effect (EC50) in the data set with NRF2 came to 90.1 nM. Also, in the data set on HCE-T cells, the “Cytotoxic concentration (concentration that does not affect cell viability)” value is listed as 181.1* uM.

As for `CC[C@@H]1CN(Cc2cc([C@@H](c3cc(OC)c(C(C)=O)s3)[C@@H](C)C(=O)O)ccc2C)S(=O)(=O)c2cnccc2O1` [Compound C1, (2R,3S)-3-(5-acetyl-4-methoxythiophen-2-yl)-3-(3-{[(R)-4-ethyl-1,1-dioxide-3,4-dihydro-2H-pyrido[4,3-b][1,4,5]oxathiazepin-2-yl]methyl}-4-methylphenyl)-2-methylpropanoic acid], the IC50 in data set [1] came to 0.15 nM. The compound also came in with an EC50 in the data set with NRF2 of 3.12 nM. The “Cytotoxic concentration (concentration that does not affect cell viability)” value in the data set on HCE-T cells was 53.5 µM.

Take `CC[C@@H]1CN(Cc2cc(C(c3cc(OC)c(C(C)=O)s3)[C@H](C)C(=O)O)ccc2C)S(=O)(=O)c2cnccc2O1` (stereo partly drawn) [Compound C2]: the 50% inhibitory concentration (IC50) in data set [1] was 0.89 nM. In addition, in the data set with NRF2, the EC50 amounted to 777 nM. Moreover, the “Cytotoxic concentration (concentration that does not affect cell viability)” value in the data set on HCE-T cells is 30.7* uM.
